These results are taken from paper PMC8841740, “Fluorescent Ligand-Based Discovery of Small-Molecule Sulfonamide Agonists for GPR120” (Frontiers in Chemistry, 2022).

Each structure is given as a SMILES string. Bounds are passed on as bounds.

Series [1] concerns the target T1, GPR120 (Homo sapiens, UniProt Q5NUL3).
T1 sequence (Q5NUL3 1-361): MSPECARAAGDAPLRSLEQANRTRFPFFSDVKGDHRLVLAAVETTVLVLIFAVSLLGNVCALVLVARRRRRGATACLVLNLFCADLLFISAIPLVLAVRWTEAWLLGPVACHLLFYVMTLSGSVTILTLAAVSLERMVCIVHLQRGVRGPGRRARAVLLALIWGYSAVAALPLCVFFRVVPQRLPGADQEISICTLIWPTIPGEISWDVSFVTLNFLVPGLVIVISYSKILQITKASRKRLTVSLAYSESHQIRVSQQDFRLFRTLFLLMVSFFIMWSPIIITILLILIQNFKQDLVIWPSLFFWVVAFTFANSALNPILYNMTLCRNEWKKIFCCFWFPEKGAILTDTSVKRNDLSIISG
The experiment in a line: BRET activity test (β-arrestin-2 recruitment, GPR120-YFP / β-arrestin-2-Rluc in HEK293 cells). Type of series: cell-based. On the set-up: host or cells: HEK293 (transfected with both plasmids). To be noted: for Emax (FFA4 β-arrestin2): GSK137647A used as a standard. On the procedure: GPR120-YFP and β-arresting-2-Rluc plasmids were transfected into HEK293 cells. After a 24-h incubation, the cells were seeded in a black 96-well plate (100 μl, 20,000 cells per well). Followed by a 24-h incubation, the solution was removed from the plate, and compounds with different concentrations (100 μl per well) and coelenterazine (10 μM, 100 μl per well) were added, followed by the fluorescence intensity was measured at 460 and 520 nm with the microplate reader ([Christiansen et al., 2016]; [Hill et al., 2018]).

A further series addresses T2, GPR40 (Homo sapiens, UniProt O14842).
T2 construct: expressed in transfected cells; host or cells: CHO (transient)
The experiment in a line: GPR40 Ca2+ flow assay in CHO cells with transient GPR40 gene. The series is classed as cell-based. To be noted: CHO cells, GPR40; read-out: FFA1 (Ca2+ pEC50) (converted). On the procedure: Ca^2+ flow activity was determined in HEK293 cells stably transfecting the GPR120-Rluc gene. After incubating the cells for 24 h, the medium was removed from the plate, and the cells were washed with HBSS buffer (without Ca^2+ and Mg^2+). Subsequently, a 2-μM Fluo-4 AM working solution in HBSS buffer (without Ca^2+ and Mg^2+) was added to the plate (40 μl per well). After incubating the cells for 20 min at 37°C, compound solution at different concentrations in HBSS buffer (per well 160 μl) was added. Followed by a 40-min incubation, the solution was removed from the plate, HEPES buffer (200 μl per well) was added, and the fluorescence intensity was detected using the microplate reader (Ex: 488 nm; Em: 520 nm) ([Watterson et al., 2017]).
Ca^2+ flow activity was determined in CHO cells with transient GPR40 gene by the same method as well, in which the GPR40 agonist TAK875 was used as a positive control.

The target of series [2] is T1, GPR120. The series can be described thus: Preliminary screening of agonists by BRET competition with probe N1. On the set-up: expressed in transfected cells. Type of series: binding. To be noted: 10 μM compound, probe N1 400 nM. The procedure: HEK293 cells stably transfected with the GPR120-Rluc gene were seeded in a black 96-well plate (100 μl, 2 × 10^4 cells per well). After a 24-h incubation, the medium was removed, probe N1 (400 nM, 50 μl per well) was added, and 10 μM of the compound was added after a 30-min incubation as well. Followed by a 40-min incubation, coelenterazine (final concentration: 10 μM, 50 μl per well) was added to the plate. Afterward, the fluorescence intensity was measured at 450 and 550 nm with the microplate reader after another 10-min incubation.

Series [3] deals with T1, GPR120. The series can be described thus: GPR120 Ca2+ flow assay in HEK293 cells stably transfecting the GPR120-Rluc gene. The series is classed as cell-based. On the set-up: expressed in transfected cells. To be noted: for Emax (FFA4 Ca2+): GSK137647A used as a standard. On the procedure: Ca^2+ flow activity was determined in HEK293 cells stably transfecting the GPR120-Rluc gene. After incubating the cells for 24 h, the medium was removed from the plate, and the cells were washed with HBSS buffer (without Ca^2+ and Mg^2+). Subsequently, a 2-μM Fluo-4 AM working solution in HBSS buffer (without Ca^2+ and Mg^2+) was added to the plate (40 μl per well).

The subject of series [4] is GPR120. To be noted: cited from earlier work.
Series [5] can be described thus: Optical property of fluorescent probes. Type of series: physicochemical. To be noted: for λabs: MeCN; for Φ (absolute quantum yield) / λem / λex: PBS; for SS (stokes shift): PBS buffer (pH = 7.4). On the procedure: The stocking solution of probes was diluted with acetonitrile to 40 μM, and their ultraviolet absorption spectrum was scanned with an ultraviolet spectrophotometer. Secondly, the excitation and emission spectra of probes at 10, 20, 30, and 40 μM with PBS buffer were measured with a microplate reader. Moreover, the excitation and emission spectrum were recorded in four solvents: MeCN, DMSO, H2O, and EA, respectively.

Where [6] appears, read: Table 3, read-out: FFA4 (β-arrestin2 pEC50) (converted).
Setting [7] is: Table 3, read-out: FFA4 (Ca2+ pEC50) (converted).
Where [8] appears, read: GPR120, β-arrestin-2 activity test, read-out: pEC50 BRET (converted).
The mark [9] stands for this setting: GPR120, Ca2+ flow, HEK293 GPR120-Rluc cells, read-out: pEC50 Ca2+ assay (converted).

In turn, `Cc1cc(C)c(NS(=O)(=O)c2ccc(-c3ccc(N)c(F)c3)cc2)c(C)c1` [Compound B6, 4′-Amino-3′-Fluoro-N-Mesityl-[1,1′-Biphenyl]-4-Sulfonamide] showed a melting point of 176 to 177 °C. Moreover, the “Emax (FFA4 β-arrestin2)” value at GPR120 [1] was 0.881. Also, the EC50 on GPR120 [1] (setting [6]) is 132 nM. In addition, the EC50 on GPR40 was above 50.1 µM. Also, the “inhibition rate in BRET screening compared with GSK137647A” value at GPR120 [2] is on record as “higher than GSK137647A”. Also, the “Emax (FFA4 Ca2+)” value on GPR120 [3] is given as 1.25. Further, on GPR120 [3] (setting [7]), the EC50 is 204 nM.

Take `Cc1cc(C)c(NS(=O)(=O)c2ccc(OCc3ccc(Br)cc3)cc2)c(C)c1` [Compound C3, 4-((4-Bromobenzyl)oxy)-N-mesitylbenzenesulfonamide]: the melting point was 161 to 162 °C.

With `Cc1ccc(S(=O)(=O)NC2c3ccccc3Oc3ccccc32)cc1` [AH-7614], the “pEC50 (Literature)” value with GPR120 [4] is on record as <4.5^16.

In turn, `Cc1cc(C)c(NS(=O)(=O)c2ccc(-c3ccc(Cl)cc3)cc2)c(C)c1` [Compound B8, 4′-Chloro-N-Mesityl-[1,1′-Biphenyl]-4-Sulfonamide] had a melting point of 214 to 215 °C.

`Cc1cc(C)c(NS(=O)(=O)c2ccc(NCCCN3C(=O)c4cccc5c(N(C)C)ccc(c45)C3=O)cc2)c(C)c1` [Compound N2, 4-((3-(6-(Dimethylamino)-1,3-dioxo-1H-benzo[de]isoquinolin-2(3H)-yl)propyl)amino)-N-mesitylbenzenesulfonamide] displayed a melting point of 103 to 104 °C. For the same compound, the EC50 at GPR120 [1] (setting [8]) was 562 nM. Moreover, in series [5], the λabs came out at 418 nm, the “Φ (absolute quantum yield)” value was determined as 2.28%, the λem is listed as 562 nm and the λex amounted to 439 nm. Also, the “SS (stokes shift)” value in series [5] was found to be 123 nm. Also, the EC50 on GPR120 [3] (setting [9]) was 6310 nM.

`O=S(=O)(Nc1ccc(Cl)cc1Cl)c1ccc(-c2ccc3ccccc3c2)cc1` [Compound D7, N-(2,4-Dichlorophenyl)-4-(naphthalen-2-yl)benzenesulfonamide]: the melting point fell in the range of 175 to 176 °C. Moreover, at GPR120 [1], the “Emax (FFA4 β-arrestin2)” value is on record as 1.17. Moreover, the EC50 at GPR120 [1] (setting [6]) was 16.6 nM. Also, the EC50 on GPR40 is above 50.1 µM. At GPR120 [2], the “inhibition rate in BRET screening compared with GSK137647A” value is listed as “higher than GSK137647A”. Moreover, the “Emax (FFA4 Ca2+)” value at GPR120 [3] was found to be 0.752. Besides, on GPR120 [3] (setting [7]), the EC50 is 129 nM.

For the compound `Cc1cc(C)c(NS(=O)(=O)c2ccc(-c3ccccc3)cc2)c(C)c1` [Compound B1, N-Mesityl-[1,1′-biphenyl]-4-sulfonamide], the melting point lay in the range of 165 to 166 °C.

`COc1ccc(NS(=O)(=O)c2ccc(-c3ccc(OC(F)(F)F)cc3)cc2)cc1OC` [Compound D1, N-(3,4-Dimethoxyphenyl)-4′-(Trifluoromethoxy)-[1,1′-Biphenyl]-4-Sulfonamide] returned a melting point of 145 to 146 °C.

As to `O=S(=O)(Nc1ccc(OC(F)(F)F)cc1)c1ccc(-c2ccc(OC(F)(F)F)cc2)cc1` [Compound D2, 4′-(Trifluoromethoxy)-N-(4-(Trifluoromethoxy)phenyl)-[1,1′-Biphenyl]-4-Sulfonamide], the melting point fell in the range of 139 to 140 °C.

`O=S(=O)(Nc1ccc(Oc2ccccc2)cc1)c1ccc(-c2ccc(OC(F)(F)F)cc2)cc1` [Compound D4, N-(4-Phenoxyphenyl)-4′-(Trifluoromethoxy)-[1,1′-Biphenyl]-4-Sulfonamide] gave a melting point of 144 to 145 °C.

Compound `Cc1cc(C)c(NS(=O)(=O)c2ccc(-c3ccc(Br)cc3)cc2)c(C)c1` [Compound B3, 4′-Bromo-N-Mesityl-[1,1′-Biphenyl]-4-Sulfonamide] came in with a melting point of 176 to 177 °C.

For the compound `Cc1cc(C)c(NS(=O)(=O)c2ccc(-c3ccc(OC(F)(F)F)cc3)cc2)c(C)c1` [Compound B5, N-Mesityl-4′-(Trifluoromethoxy)-[1,1′-Biphenyl]-4-Sulfonamide], the melting point is 169 to 170 °C. For the same compound, on GPR120 [1], the “Emax (FFA4 β-arrestin2)” value is 0.790. Moreover, on GPR120 [1] (setting [6]), the EC50 was 43.7 nM. On GPR40, the EC50 was above 50.1 µM. Also, the “inhibition rate in BRET screening compared with GSK137647A” value at GPR120 [2] is on record as “higher than GSK137647A”. Besides, the “Emax (FFA4 Ca2+)” value at GPR120 [3] turned out to be 1.27. At GPR120 [3] (setting [7]), the EC50 is 81.3 nM.

Consider `COc1cc(NS(=O)(=O)c2ccc(-c3ccc(OC(F)(F)F)cc3)cc2)cc(OC)c1OC` [Compound D3, 4′-(Trifluoromethoxy)-N-(3,4,5-Trimethoxyphenyl)-[1,1′-Biphenyl]-4-Sulfonamide], for which the melting point is 136 to 137 °C.

The compound `Cc1cc(C)c(NS(=O)(=O)c2ccc(-c3ccc(F)cc3)cc2)c(C)c1` [Compound B2, 4′-Fluoro-N-Mesityl-[1,1′-Biphenyl]-4-Sulfonamide] had a melting point of 214 to 215 °C.

`Cc1cc(C)cc(COc2ccc(S(=O)(=O)Nc3c(C)cc(C)cc3C)cc2)c1` [Compound C1, 4-((3,5-Dimethylbenzyl)oxy)-N-mesitylbenzenesulfonamide]: the melting point was in the range of 152 to 153 °C.

In turn, `Cc1cc(C)c(NS(=O)(=O)c2ccc(NCCCCN3C(=O)c4cccc5c(N(C)C)ccc(c45)C3=O)cc2)c(C)c1` [Compound N3, 4-((4-(6-(Dimethylamino)-1,3-dioxo-1H-benzo[de]isoquinolin-2(3H)-yl)butyl)amino)-N-mesitylbenzenesulfonamide] displayed a melting point of 184 to 185 °C. The EC50 at GPR120 [1] (setting [8]) was 1780 nM. For the same compound, in series [5], the λabs was 417 nm, the “Φ (absolute quantum yield)” value is recorded as 1.03%, the λem was found to be 560 nm and the λex was 438 nm. Besides, in series [5], the “SS (stokes shift)” value worked out at 122 nm. For the same compound, the EC50 on GPR120 [3] (setting [9]) is 8910 nM.

For the compound `Cc1cc(C)c(NS(=O)(=O)c2ccc(-c3ccc4ccccc4c3)cc2)c(C)c1` [Compound B7, N-Mesityl-4-(Naphthalen-2-yl)benzenesulfonamide], the melting point was 211 to 212 °C. Moreover, the “Emax (FFA4 β-arrestin2)” value at GPR120 [1] stood at 0.894. Further, the EC50 at GPR120 [1] (setting [6]) was 19.5 nM. Moreover, the EC50 at GPR40 is above 50.1 µM. Also, the “inhibition rate in BRET screening compared with GSK137647A” value on GPR120 [2] was “higher than GSK137647A”. Besides, on GPR120 [3], the “Emax (FFA4 Ca2+)” value stood at 0.285. The EC50 on GPR120 [3] (setting [7]) was 138 nM.

Turning to `Cc1cc(C)c(NS(=O)(=O)c2ccc(OCc3c(F)cccc3C(F)(F)F)cc2)c(C)c1` [Compound C2, 4-((2-Fluoro-6-(trifluoromethyl)benzyl)oxy)-N-mesitylbenzenesulfonamide], the melting point was 154 to 155 °C.

The compound `Cc1ccc(-c2ccc(S(=O)(=O)Nc3c(C)cc(C)cc3C)cc2)cc1` [Compound B4, N-Mesityl-4′-Methyl-[1,1′-Biphenyl]-4-Sulfonamide] yielded a melting point of 195 to 196 °C.
